Experimental findings from patent US6602690B2, “Process for production of dihomo-γ-linolenic acid and lipid containing same” (Suntory, Ltd., priority 1991, dated 2003) are described below.

Experiment [1] has as its system mutant Mortierella alpina SAM 1860. Put plainly: Culturing of mutant Mortierella alpina SAM 1860 in medium with added substrate (Example 3), fatty acid methyl esters analysed by gas chromatography. Format: cell-based. As to conditions: 0.5% additive in medium with 2% glucose, 1% yeast extract, 0.2% Tween 20; 28° C., 7 days. On the procedure: These cells were extracted with a solvent of one phase chloroform/methanol/water according to Bligh & Dyer extraction method to obtain total lipids in an amount of 505 mg from the strain IFO 8568, and an amount of 530 mg from the mutant SAM 1860. These lipids were subjected to methyl-esterification using anhydrous methanol/hydrochloric acid (95:5) at 50° C. for 3 hours, and the resulting fatty acid methyl esters were extracted to obtain 417 mg of a total fatty acid methyl ester preparation from the strain IFO 8568, and 454 mg of a total fatty acid preparation from the mutant SAM 1860. The fatty acid methyl ester preparations were analyzed by gas chromatography.
20 ml of a medium (pH 6.0) containing 2% glucose; 1% yeast extract; 0.2% Tween 20; and 0.5% hydrocarbon, sodium salt of fatty acid, fatty acid ester, or fat or oil, was put into a 100 ml Erlenmeyer flask, and autoclaved at 120° C. for 20 minutes.
A mutant Mortierella alpina SAM 1860 was added to each flask, and cultured on a reciprocating shaker (110 rpm) at 28° C. for 7 days. For the resulting cell preparations, fatty acid methyl esters were analyzed by gas chromatography as described in Example 1.

The test system of experiment [2] is Mortierella alpina IFO 8568. In words: Culturing of Mortierella alpina IFO 8568 with sesamin-containing soybean oil (Example 5, Comparative Example). To be noted: strain IFO 8568; soybean oil with 15% by weight sesamin, 0.5 ml at start and after 24 hours per 100 ml; 28° C., 7 days. The class given is cell-based. The procedure:
(§1) 100 ml each of a medium (pH 6.0) containing 4% glucose and 1% yeast extract was put into 4 Erlenmeyer flasks having a volume of 500 ml, and 0.5 ml each of soybean oil in which sesamin (2,6-bis-(3,4-methylenedioxyphenyl)-cis-3,7-dioxabicyclo[3,3,0]octane) had been dissolved to a sesamin concentration of 15% by weight was added to 2 flasks, and 0.5 ml each of soybean oil was added 2 other flasks, and the flasks were sterilized at 120° C. for 20 minutes.
(§2) Mortierella alpina IFO 8568 (Comparative Example) was added to two different media, and the mutant SAM 1860 (Example) was add to other different media.
(§3) The strains were cultured on a reciprocating shaker (110 rpm) at 28° C. for 7 days. After 24 hours from the start of culturing, 0.5 ml each of the sesamin-containing soybean oil was added to the media to which the sesamin-containing soybean oil had been added, and 0.5 ml each of soybean oil was added to the media to which soybean oil had been added. After culturing, a fatty acid methyl ester preparation was analyzed by gas chromatography as described in Example 1.

The next experiment deals with mutant SAM 1860. Put plainly: Culturing of mutant SAM 1860 with sesamin-containing soybean oil (Example 5). Format: cell-based, Mortierella alpina. The procedure: as §1, §2, §3
Where [3] appears, read: Example 5 cultures (Table 4), strain not specified.

Molecules are shown by their SMILES. Where only a bound is given, the exact number is not on record here.

Consider `CCCCCCCCCCCCCCCC` [Hexadecane], for which, in experiment [1], the ARA stood at 0.55 g/L, the DGLA turned out to be 1.89 g/L and the Dry cells is 18.1 g/L.
On the same counts, the results for `CCCCC/C=C\C/C=C\CCCCCCCC(=O)OC` [Methyl linoleate] are 0.60 g/L, 2.15 g/L and 18.7 g/L.
Consider `CCCCCCCC/C=C\CCCCCCCC(=O)OC` [Methyl oleate], for which, in experiment [1], the ARA worked out at 0.56 g/L, the DGLA amounted to 1.99 g/L and the Dry cells is 18.1 g/L.
On the same counts, the results for `CCCCCCCCCCCCCCCCCC` [Octadecane] are 0.50 g/L, 1.80 g/L and 18.3 g/L.
On the same counts, the results for `CCCCC/C=C\C/C=C\CCCCCCCC(=O)[O-].[Na+]` [Sodium linoleate] are 0.49 g/L, 1.40 g/L and 14.8 g/L.
In the case of `CCCCCCCC/C=C\CCCCCCCC(=O)[O-].[Na+]` [Sodium oleate], in experiment [1], the ARA was found to be 0.48 g/L, the DGLA was found to be 1.40 g/L and the Dry cells came out at 15.5 g/L.
Consider `c1cc2c(cc1[C@H]1OC[C@H]3[C@@H]1CO[C@@H]3c1ccc3c(c1)OCO3)OCO2` [sesamin, 2,6-bis-(3,4-methylenedioxyphenyl)-cis-3,7-dioxabicyclo[3,3,0]octane], for which the “Ratio of DGLA:ARA” value in experiment [2] is listed as no more than 1.17. In the experiment with mutant SAM 1860 (setting [3]), the “effect of addition on the amount of dry cells” value is given as “did not effect” and the “effect of addition on the amount of total fatty acids produced” value is recorded as “did not effect”. The “Ratio of DGLA:ARA” value in the experiment on mutant SAM 1860 (mutant SAM 1860, soybean oil with 15% by weight sesamin, 0.5 ml at start and after 24 hours per 100 ml, 28° C., 7 days) was 12.3.
